From patent publication US8507756B2, “Plant protection” (Plant Bioscience Limited, priority 2007, dated 2013) come the findings set out here.

In the data set the test system is tomato (Solanum lycopersicum cv "Carousel") seeds. Put plainly: Effect of JA seed treatment on seed germination of tomato. In kind it is in vivo. The source says:
The illustrated data are means of 10 replicate populations+/−standard error of the mean, and the line is a fitted dose response.

Molecules are shown by their SMILES. Some results are limits rather than exact numbers.

With `CC/C=C\C[C@H]1C(=O)CC[C@@H]1CC(=O)O` [JA, jasmonic acid], the “JA concentration that significantly reduced the final percentage germination” value (JA between 0.001 and 50 mM tested, germination 7 days after sowing) is listed as above 10 mM. Further, the Final percentage germination result (seed treatment 1.5 or 3.0 mM JA) was “no significant effects”. Besides, the “Delay of seed germination” value (seed treatment 1.5 or 3.0 mM JA, 24 hours at 4 C in the dark) is listed as “delayed by approximately one day”.
